Laboratory results published in PubChem BioAssay (NCI).
Values joined by “and” are separate entries in the source; they are usually repeats but may differ in a detail not shown here. Equal entries are not always repeated.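 The compound was tested at five concentrations on cells cultured in 96-well plates, with a 48-hour exposure period. GI50 = concentration required for 50% inhibition of growth. Definition used: TGI = concentration required for complete inhibition of growth.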

Tests used:
Test in all cases: NCI-60 cell line screen, 48 h
HOP-62 NSCLC = tested on: HOP-62 NSCLC
HCT-15 colon = tested on: HCT-15 colon
HL-60(TB) leukemia = tested on: HL-60(TB) leukemia
RXF 393 renal = tested on: RXF 393 renal
KM20L2 colon = tested on: KM20L2 colon
UACC-257 melanoma = tested on: UACC-257 melanoma
NCI-H522 lung = tested on: NCI-H522 lung
OVCAR-5 ovarian = tested on: OVCAR-5 ovarian
M19-MEL melanoma = tested on: M19-MEL melanoma
SF-539 CNS = tested on: SF-539 CNS

Compound	TGI (HOP-62 NSCLC) [µM]	TGI (HCT-15 colon) [µM]	TGI (HL-60(TB) leukemia) [µM]	TGI (RXF 393 renal) [µM]	TGI (KM20L2 colon) [µM]	TGI (UACC-257 melanoma) [µM]	TGI (NCI-H522 lung)	TGI (OVCAR-5 ovarian) [µM]	TGI (M19-MEL melanoma) [µM]	TGI (SF-539 CNS)	GI50 (HOP-62 NSCLC) [µM]	GI50 (HCT-15 colon) [µM]	GI50 (HL-60(TB) leukemia) [µM]	GI50 (RXF 393 renal) [µM]	GI50 (KM20L2 colon) [µM]	GI50 (UACC-257 melanoma) [µM]	GI50 (NCI-H522 lung) [µM]	GI50 (OVCAR-5 ovarian) [µM]	GI50 (M19-MEL melanoma) [µM]	GI50 (SF-539 CNS) [µM]
CC(C)N1C(C)[C@@H](c2ccccc2)O[P@@]1(=O)CC1=CCCCC1 (some centres not stated)	> 100	> 100	63.7	> 100	> 100	> 100	> 100 µM	> 100	> 100	> 100 µM	–	–	–	–	–	–	–	–	–	–
COC(=O)C(=O)C(C(C)=O)C(=O)NCc1ccccc1 (configuration not stated)	> 100	> 100	> 100	> 100	> 100	> 100	> 100 µM	> 100	> 100	> 100 µM	–	–	–	–	–	–	–	–	–	–
COc1cc([C@@H]2OC(=O)C3C2C(=O)O[C@H]3c2ccc(O)c(OC)c2)ccc1O (some centres not stated)	> 100	> 100	–	> 100	> 100	> 100	–	> 100	> 100	> 100 µM	–	–	–	–	–	–	–	–	–	–
CC(=O)[CH-]C(=O)c1ccccc1.CC(=O)[CH-]C(=O)c1ccccc1.CC[C@H](/C=C/C(C)[C@H]1CCC2[C@@H]3CC=C4C[C@@H]([O-])CC[C@]4(C)C3CC[C@@]21C)C(C)C.CC[C@H](/C=C/C(C)[C@H]1CCC2[C@@H]3CC=C4C[C@@H]([O-])CC[C@]4(C)C3CC[C@@]21C)C(C)C.Cl.[Ti+4] (some centres not stated)	> 25	> 25	16.6	> 25	> 25	> 25	> 25 µM	> 25	> 25	> 25 µM	> 25	> 25	6.35	> 25	> 25	> 25	> 25	> 25	> 25	> 25
CCOC(=O)C(=O)Nc1c(C)cccc1C(C)(C)C	> 100	> 100	–	> 100	> 100	> 100	> 100 µM	> 100	> 100	> 100 µM	–	–	–	–	–	–	–	–	–	–
COc1ccc(/C=C\c2cc(OC)c(OC)c(OC)c2)cc1OC(=O)CC(N)C(=O)O (configuration not stated)	> 100	–	–	–	21.2	> 100	0.00157 µM and 0.00192 µM	> 100	> 100	0.00577 µM and 0.0374 µM	–	0.000452	0.000165	0.00122	–	11.9	0.000424	55.8	–	0.000427
NC(=O)C(=O)C1C(=O)N(c2ccccc2)N=C1N (configuration not stated)	> 100	> 100	> 100	–	> 100	> 100	> 100 µM	> 100	–	> 100 µM	–	–	–	–	–	–	–	–	–	–
CN(CCCN1C(=O)c2cccc3cc([N+](=O)[O-])cc(c23)C1=O)CCN(C)CCCN1C(=O)c2cccc3cc([N+](=O)[O-])cc(c23)C1=O	> 39.3	> 39.3	> 39.3	> 39.3	> 39.3	> 39.3	> 39.3 µM	> 39.3	> 39.3	> 39.3 µM	–	–	–	–	–	–	–	–	–	–
CCCCCCCCC(C)CCCCCCCCC(=O)OCC(COP(=O)([O-])OCC[N+](C)(C)C)OC(=O)CCCCCCCCC(C)CCCCCCCC (configuration not stated)	> 100	> 100	> 100	> 100	> 100	> 100	> 100 µM	> 100	> 100	–	–	–	–	–	–	–	–	–	–	–
CN(C)C(=S)/N=c1\ssc(=S)n1Cc1ccco1	> 63.1	> 100	8.2	8.22	> 100	> 100	2.07 µM	> 100	> 100	7.66 µM	–	–	–	–	–	–	–	–	–	–
Cc1ccc(C2[C@H]3C(=O)N(c4ccc(Cc5ccc(N6C(=O)[C@@H]7ON(c8ccccc8)C(c8ccc(C)cc8)[C@@H]7C6=O)cc5)cc4)C(=O)[C@H]3ON2c2ccccc2)cc1 (some centres not stated)	> 100	> 100	> 100	> 100	> 100	> 100	–	> 100	> 100	> 100 µM	–	–	–	–	–	–	–	–	–	–
CCCCCN(CCCCC)C(=O)[C@H](CCC(=O)O)NC(=O)c1cc2ccccc2[nH]1	> 100	> 100	61.8	93.5	> 100	> 100	67.7 µM	> 100	> 100	> 100 µM	–	–	–	–	–	–	–	–	–	–
N#CC(C(=N/O)/C(=N\O)C(C#N)c1ccccc1)c1ccccc1 (configuration not stated)	> 100	> 100	> 100	> 100	> 100	> 100	> 100 µM	> 100	> 100	> 100 µM	–	–	–	–	–	–	–	–	–	–
O=C1C(Cl)=C(Cl)C(=O)N1c1cccc(C(F)(F)F)c1	> 100	> 100	> 100	70	> 100	> 100	26.4 µM	> 100	> 100	> 100 µM	–	–	–	–	–	–	–	–	–	–
CC1=CC(C)(C)Nc2ccc(Cc3ccc4c(c3)C(C)=CC(C)(C)N4)cc21	> 100	72.6	34.1	88.7	–	72.1	16.1 µM	> 100	–	89.3 µM	21.3	13.8	5.1	22	–	7.06	3.56	52.3	–	23.6
C[C@@]1(C(=O)O)CCC[C@]2(C)C1CC[C@]13C[C@@](O)(CO)[C@](O)(CC[C@]12O)C3 (some centres not stated)	> 100	> 100	> 100	> 100	–	> 100	> 100 µM	> 100	–	> 100 µM	> 100	> 100	> 100	> 100	–	> 100	> 100	> 100	–	> 100
O=[N+]([O-])c1ccc(C2SCc3nc4ccccc4n32)cc1 (configuration not stated)	> 100	–	> 100	> 100	> 100	> 100	–	> 100	> 100	> 100 µM	–	–	–	–	–	–	–	–	–	–
